This note sets out measurements from patent publication US20240197788A1, “PHARMACEUTICAL COMPOSITION FOR PREVENTING OR TREATING PARKINSON'S DISEASE, AND PREPARATION METHOD THEREOF” (INDUSTRY FOUNDATION OF CHONNAM NATIONAL UNIVERSITY, priority 2021, published 2024).

Series [1] is described as follows: Rotenone toxicity, trypan blue cell counting of surviving cells. The class given is cell-based. The conditions noted are these: human, SH-SY5Y neuroblastoma cells, 0.5 μM rotenone. The method, then:
The human neuroblastoma cell line, that is, SH-SY5Y (RRID: CVCL 0019; ATCC® CRL-2266) was cultured in DMEM supplemented with 10% FBS and 1% penicillin-streptomycin (Welgene Inc., Gyeonsangbuk-do, Republic of Korea) at 37° C. under a wet condition of 5% CO2/95% air. The mixed culture (passages 15-22) was washed with phosphate-buffered saline (PBS), the cells were isolated with 0.25% trypsin-EDTA solution and then reseeded in DMEM containing 1% FBS at 5×10^4 cells/Ml. Then, after overnight incubation, it was used for experiments. ROT (Sigma R8875) stock was prepared at a concentration of 10 mM in […] (DMSO; Sigma D2650) solvent, stored at −80° C., and used within 6 months. Before starting each experiment, a serum-free DMEM culture was diluted to prepare a ROT stock working solution.
SH-SY5Y cells were divided into a treated group treated with ROT (0.5 μM) for 24 hours and an untreated group, followed by culturing in DMSO solvent. […] The number of surviving cells was counted using LUNA-II™ (Logos Biosystems, Gyeonggi-do, Republic of Korea) automatic cell counter. Cell count analysis was performed three times and expressed as a percentage (%) of the control.

Series [2] has as its system tyrosine hydroxylase (TH). The experiment in a line: Western blot of tyrosine hydroxylase protein expression in SH-SY5Y cells. Type of series: cell-based, human. The conditions noted are these: 0.5 μM rotenone alone; FIGS. 3 and 4. How it is done:
(§1) SH-SY5Y cells were divided into a treated group treated with ROT (0.5 μM) for 24 hours and an untreated group, followed by culturing in DMSO solvent. Thereafter, the culture was removed, and the cells were divided into hBMSC-CM-treated group, NI-hBMSC-CM-treated group, hADSC-CM-treated group and NI-hADSC-CM-treated group in 50% diluted DMEM, followed by culturing each group in ROT (0.5 μM)-treated and untreated groups, respectively, for 24 hours. FBS was maintained at a concentration of 1% throughout the study. Phase contrast images were taken using an Olympus microscope (CKX41) equipped with a camera. […] The number of surviving cells was counted using LUNA-II™ (Logos Biosystems, Gyeonggi-do, Republic of Korea) automatic cell counter. Cell count analysis was performed three times and expressed as a percentage (%) of the control.
(§2) After incubation for a total of 48 hours, the cells were scraped using a cell scraper, washed twice with PBS, and then exposed to a cell lysis buffer supplemented with protease inhibitor and phosphatase inhibitor (100 mM Tris-HCl (pH 7.6), 100 mM NaCl, 1% Nonidet P-40, 1% sodium deoxycholate, 0.1% sodium dodecyl sulfate (SDS) and 1% Triton X-100), followed by incubation on ice for 30 minutes. […] The protein concentration was measured using a BCA protein assay kit (Thermo Fisher Scientific, Waltham, MA, USA #23225) according to the manufacturer's instructions. […]

The test system of series [3] is procaspase-9, 3 and 7, PARP-1. Put plainly: Western blot of caspase proteins and PARP-1 cleavage in SH-SY5Y cells. Type of series: cell-based, human. The following applies: rotenone alone; FIGS. 17A-17D, 18A-18D. The method, then: as §1, §2
For series [4], the system named is NF—H, β3-tubulin, NeuN, SYP. Put plainly: Western blot of neuron-specific proteins in SH-SY5Y cells. The class given is cell-based, human. The conditions noted are these: rotenone treatment (0.5 μM, 48 hours); FIGS. 13A-13D, 14A-14D. How it is done:
(§3) After incubation for a total of 48 hours, the cells were scraped using a cell scraper, washed twice with PBS, and then exposed to a cell lysis buffer supplemented with protease inhibitor and phosphatase inhibitor (100 mM Tris-HCl (pH 7.6), 100 mM NaCl, 1% Nonidet P-40, 1% sodium deoxycholate, 0.1% sodium dodecyl sulfate (SDS) and 1% Triton X-100), followed by incubation on ice for 30 minutes. The eluate was centrifuged at 13,200 rpm and at 4° C. for 15 minutes, and the supernatant was collected. The protein concentration was measured using a BCA protein assay kit (Thermo Fisher Scientific, Waltham, MA, USA #23225) according to the manufacturer's instructions.
Protein (15 μg) was separated on an 8-14% SDS-polyacrylamide gel and transferred to a nitrocellulose membrane (Millipore, Berlington, MA, USA, HATF00010), and the membrane was washed with PBS containing 0.5% (v/v) Tween 20 (PBS-T), followed by blocking with 5% (v/v) non-fat dry milk solution included in the preparation of PBS-T. Then, it was incubated overnight at 4° C. with the primary antibody. Thereafter, the cell membrane was exposed to a secondary antibody conjugated to horseradish peroxidase at room temperature (RT) for 2-3 hours, and washed three times with PBS-T. Signals were detected by an enhanced chemiluminescence (ECL) system (Millipore, WBLUR0500) using a LAS 4000 luminescent image analyzer (GE Healthcare, Japan). […]

Series [5] deals with Triton X-100 insoluble alpha-synuclein (p-S129 α-syn, total α-syn). Put plainly: Western blot of Triton X-100 insoluble alpha-synuclein in SH-SY5Y cells. Type of series: cell-based, human. The following applies: ROT-treated group, insoluble fraction. The method, then: (§4) SH-SY5Y cells were divided into a treated group treated with ROT (0.5 μM) for 24 hours and an untreated group, followed by culturing in DMSO solvent. Thereafter, the culture was removed, and the cells were divided into hBMSC-CM-treated group, NI-hBMSC-CM-treated group, hADSC-CM-treated group and NI-hADSC-CM-treated group in 50% diluted DMEM, followed by culturing each group in ROT (0.5 μM)-treated and untreated groups, respectively, for 24 hours. FBS was maintained at a concentration of 1% throughout the study. Phase contrast images were taken using an Olympus microscope (CKX41) equipped with a camera. Damaged and depleted suspended cells in the culture and adherent cells isolated by trypsinization were combined and a trypan blue cell counting method was applied. The number of surviving cells was counted using LUNA-II™ (Logos Biosystems, Gyeonggi-do, Republic of Korea) automatic cell counter. Cell count analysis was performed three times and expressed as a percentage (%) of the control.
After 48 hours of experiment, SH-SY5Y cells were lysed in cell lysis buffer containing a protease inhibitor and a phosphatase inhibitor together with the above-described 1% Triton X-100 for 30 minutes. […] The protein concentration was measured using a BCA protein assay kit. […] The same protein load was assessed by the expression level of GAPDH used as an internal control. […]

The next series concerns BAX, Bcl-2 and Mcl-1. Put plainly: Western blot of apoptosis-related proteins Bax, Bcl-2, Mcl-1 in SH-SY5Y cells. The class given is cell-based, human. The conditions noted are these: rotenone alone. How it is done:
as §4, §3
Protein (15 μg) was separated on an 8-14% SDS-polyacrylamide gel and transferred to a nitrocellulose membrane (Millipore, Berlington, MA, USA, HATF00010), and the membrane was washed with PBS containing 0.5% (v/v) Tween 20 (PBS-T), followed by blocking with 5% (v/v) non-fat dry milk solution included in the preparation of PBS-T. Then, it was incubated overnight at 4° C. with the primary antibody. […]

On to `C=C(C)[C@H]1Cc2c(ccc3c2O[C@@H]2COc4cc(OC)c(OC)cc4[C@@H]2C3=O)O1` [rotenone], for which the viability at 48 h, 0.5 μM in series [1] was found to be 55%. The “protein expression of tyrosine hydroxylase” value in series [2] was “decreased”. For the same molecule, in series [3], the cleaved-PARP/pro-PARP ratio result is on record as “greatly increased”; the “expression of procaspase-9, 3 and 7” value is “greatly decreased”. Besides, in series [4], the “expression of NF—H, β3-tubulin, NeuN and SYP” value was “reduced”. Also, the “phosphorylated S129 alpha-synuclein/total alpha-synuclein ratio with respect to dimers and monomers” value in series [5] was “significantly decreased”. Moreover, the Bax/Bcl-2 ratio entry in the series with BAX, Bcl-2 and Mcl-1 is reported as “greatly increased”. For the same molecule, in the series on BAX, Bcl-2 and Mcl-1 (FIGS. 15A-15D, 16A-16D), the Bax expression entry is on record as “significantly increased”; the “expression of Bcl-2 and Mcl-1” value is “significantly inhibited”.
